{
  "source": "paper PMC12758200",
  "about": "“Inhibition of lysosomal LAMTOR1 increases autophagy by suppressing the MTORC1 pathway to ameliorate lipid accumulations in MAFLD” (Autophagy, 2025)",
  "key": {"LAMTOR1": {"target": "T1, LAMTOR1 (Mus musculus, UniProt Q9CQ22, L22A)", "T1 construct": "MYC-LAMTOR1^L22A", "T1 sequence (Q9CQ22 2-161 L22A)": "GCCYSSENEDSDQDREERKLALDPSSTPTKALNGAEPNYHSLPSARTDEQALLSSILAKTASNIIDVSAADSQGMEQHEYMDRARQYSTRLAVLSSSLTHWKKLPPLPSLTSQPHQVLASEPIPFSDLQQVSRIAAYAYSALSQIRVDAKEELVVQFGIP", "assay": "DARTS in lysate of transfected HEK293 cells, […] ACA", "assay_type": "cell-based"}, "[1]": {"target": "LAMTOR1 (late endosomal/lysosomal adaptor, MAPK and MTOR activator 1) (Mus musculus, UniProt Q9CQ22)", "sequence (Q9CQ22 2-161)": "as the sequence (Q9CQ22 2-161 L22A) above, with A21L counted along it", "assay": "dose-dependent DARTS western blot in 3T3-L1 lysate; CETSA and isothermal dose-response CETSA", "assay_type": "biochemical"}},
  "data": [
    {"smiles": "COc1ccc(-c2cc(=O)c3c(O)cc(O)cc3o2)cc1", "note": "[ACA, 5,7-dihydroxy-4’methoxyflavone]", "values": [
      {"measurement": "% increase in stability", "setting": "LAMTOR1", "result": 35.7, "unit": "% increase in stability"},
      {"measurement": "EC50", "setting": "[1]", "result": "~44", "unit": "µM"}
    ]}
  ]
}
